Data on 29 compounds can be found in US20040106802A1, “Novel compounds and therapeutic uses thereof” (TORRENT PHARMACEUTICALS LTD., priority 2002, published 2004).

What is called IC50 is the concentration that gives 50% inhibition.

Structures can show the parent of a compound that is named as a salt. Where two headings read alike, the source gives them in different places.

This test has as its target T1, Porcine DPP-IV (Sus scrofa, UniProt P22411).
T1 construct: purchased Sigma-Aldrich Germany
Kind of test: Assay of DPP-IV enzyme inhibitory activity (spectrophotometric, Gly-Pro-pNA cleavage). Conditions: Porcine DPP-IV, Gly-Pro-pNA substrate, 30° C., mean ± SD of three experiments except compound Nos. 133 & 139, read-out: IC50 (μM) Mean ± SD, inhibitory activity on DPP-IV enzyme activity. The test is classed as biochemical. The method, then:
Assay of DPP-IV Enzyme Inhibitory Activity.
The assay method is a modified method (as described by Welch et al, 1998) based on spectrophotometric determination of the product formed by penultimate proline cleaving activity of the enzyme.
Assay protocol involves incubation of the enzyme dipeptidyl peptidase IV with the test substance at 30° C. for 30 min followed by addition of this reaction mixture to the substrate Gly-Pro-pNA that was equilibrated at 30° C. for 2 min. The enzyme cleaves the substrate at penultimate proline and releases p-nitroanilide, the optical density of which is measured at 385 nm. The formation of p-nitroanilide will be reduced in the presence of inhibitor. […] The activity of molecule is expressed in terms of % inhibition. At least three different concentrations were tried out for each of the test substances. The percentage inhibitions for each of the concentrations were plotted and an IC50 of the test compound was worked out. The enzyme inhibitory activity of different test compounds were compared based on the IC50 values.
The percentage inhibition % I, is calculated using the formula:
% I=[(1−vi/v0)]*100 where vi and v0 are the Vmax values with and without the test substance, respectively.
Substrate solution: 0.5 mM in 45 mM phosphate buffer
Substrate used: Gly-Pro-p-nitroanilide (Source: Sigma-Aldrich Co. Germany)
3.288 mg substrate in 1 ml 45 mM phosphate buffer was prepared as stock solution. 0.25 ml of this stock solution was diluted to 5 ml to get 0.5 mM substrate solution (90 μl to be added in each well). The stock solution of the substrate was used within three days of preparation.
Enzyme solution: Porcine DPP-IV (Sigma-Aldrich Germany) was used throughout the study. 0.4 mU in 80 μl of Tris. HCl buffer was prepared. Fresh solutions were prepared everyday for the assays.
Various concentrations of inhibitor were used: 0.391 μM, 0.781 μM, and 3.125 μM. Solutions of inhibitor were prepared and used on the same day.
280 μl of enzyme solution (0.4-mU/80 μl in Tris HCl buffer) was added to the eppendorf containing 70 μl solution of inhibitor or vehicle and mixed. This reaction mixture was incubated for 30 min at 30° C. The 96 well plate containing substrate solution was thermally equilibrated in the spectrophotometer for 2 min at 30° C. Later 100 μl of the enzyme-inhibitor pre-incubation solution was added to respective wells in a 96 well plate. Each concentration of the inhibitor was tested in triplicates.
The rate of change in UV absorbance (in presence of various concentrations of the inhibitor) was measured at 385 nm, with respect to wells containing only 0.5 mM substrate in 45 mM phosphate buffer as blank at every 10 min for 2 hours after adding enzyme-inhibitor mixture to wells containing substrate solution.

T1 sequence (P22411 whole entry): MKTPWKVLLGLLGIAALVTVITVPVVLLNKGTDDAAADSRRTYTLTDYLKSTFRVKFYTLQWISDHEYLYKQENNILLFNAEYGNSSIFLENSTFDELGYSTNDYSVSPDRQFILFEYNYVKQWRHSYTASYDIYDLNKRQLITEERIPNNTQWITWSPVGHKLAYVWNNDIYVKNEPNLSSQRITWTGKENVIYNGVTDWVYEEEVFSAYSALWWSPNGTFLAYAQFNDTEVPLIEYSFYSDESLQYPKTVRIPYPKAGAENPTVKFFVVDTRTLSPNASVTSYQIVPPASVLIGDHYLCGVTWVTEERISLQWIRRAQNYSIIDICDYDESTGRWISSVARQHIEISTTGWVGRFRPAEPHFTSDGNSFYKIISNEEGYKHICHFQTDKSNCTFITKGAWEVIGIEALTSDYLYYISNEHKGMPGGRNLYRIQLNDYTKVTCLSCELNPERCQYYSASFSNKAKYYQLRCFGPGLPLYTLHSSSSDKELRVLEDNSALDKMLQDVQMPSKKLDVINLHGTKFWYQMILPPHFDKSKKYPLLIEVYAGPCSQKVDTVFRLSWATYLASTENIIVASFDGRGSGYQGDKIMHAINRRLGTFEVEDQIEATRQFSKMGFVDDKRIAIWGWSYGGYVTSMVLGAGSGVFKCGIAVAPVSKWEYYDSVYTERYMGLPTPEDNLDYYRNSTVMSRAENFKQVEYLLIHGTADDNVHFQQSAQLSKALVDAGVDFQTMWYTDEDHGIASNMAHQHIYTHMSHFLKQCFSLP

For `CCCC1CCC(N(N)CC(=O)N2CSCC2C#N)CC1` (centres unmarked) [Compound No. 60, 3-[1-Oxo-2-(1-(4-npropylcyclohexyl) hydrazino)]ethyl-4-cyanothiazolidine trifluoro acetate], the IC50 was found to be 0.69 ± 0.03 µM.
Take `N#CC1CCCN1C(=O)CN(N)C1CCN(S(=O)(=O)c2ccc(Cl)cc2)CC1` (centres unmarked) [Compound No. 73, [1-Oxo-2-(1-(1-(4-chlorophenylsulphonyl)-piperidin-4-yl)-hydrazino)]ethyl-2-cyanopyrrolidine trifluoroacetate]: the IC50 was 48.9 ± 1.81 µM.
`CCOC(=O)Cc1csc(NC(=O)CN2CCC(N(N)CC(=O)N3CSCC3C#N)CC2)n1` (centres unmarked) [compound 129, 3-[1-oxo-2-(1-(1-(2-oxo-2-(4-ethoxycarbonylmethylthiazole-2-yl)aminoethyl)piperidine-4-yl)) hydrazino]ethyl-4-cyanothiazolidine, tris-trifluoroacetate]: the IC50 worked out at 0.362 ± 0.06 µM.
For the compound `CC1CCC(N(CC(=O)N2CSCC2C#N)NC(C)C)CC1` (centres unmarked) [Compound No. 44, 3-[1-Oxo-2-(1-(4-methylcyclohexyl)-2-isopropyl)hydrazino]ethyl-4-cyanothiazolidine trifluoroacetate], the IC50 was 2.86 ± 0.18 µM.
With `CN(CC(=O)N1CSCC1C#N)NC1CCN(Cc2ccc(C#N)cc2)CC1` (centres unmarked) [Compound No. 58, 3-[1-Oxo-2-[1-methyl-2-(1-(4-cyanophenylmethyl)piperidin-4-yl)]hydrazino]ethyl-4-cyanothiazolidine bis trifluoroacetate], the IC50 is 17.1 ± 0.3 µM.
The same measure, in the same setting: to `N#CC1CSCN1C(=O)CN(N)Cc1ccc([N+](=O)[O-])cc1` (centres unmarked) [Compound No. 17, 3-[1-Oxo-2-((1-(4-nitrophenylmethyl))hydrazino)]ethyl-4-cyano thiazolidine trifluoroacetate] belongs 35.8 ± 1.03 µM; to `N#CC1CSCN1C(=O)CN(N)C1CCN(CC(=O)NC2CCCCC2)CC1` (centres unmarked) [compound 125, 3-[1-oxo-2-(1-(1-(2-oxo-2-cyclohexyl)aminoethyl)piperidin-4-yl)hydrazino]ethyl-4-cyanothiazoline, bis-trifluoroacetate], 0.506 ± 0.06 µM; to `CC(C)NN(CC(=O)N1CSCC1C#N)C1CCC(NS(C)(=O)=O)CC1` (centres unmarked) [Compound No. 84, 3-[1-Oxo-2-(1-(1-methanesulphonylamino-4-cyclohexyl)-2-isopropyl) hydrazino]ethyl-4-cyanothiazolidine trifluoroacetate], 5.78 ± 0.18 µM.
Regarding `N#CC1CSCN1C(=O)CN(N)C12CC3CC(CC(C3)C1)C2` (centres unmarked) [Compound No. 75, 3-[1-Oxo-2-(1-(1-adamantanyl) hydrazino)]ethyl-4-cyanothiazolidine trifluoroacetate], the IC50 was 0.31 ± 0.05 µM.
Consider `N#CC1CSCN1C(=O)CN(N)C1CCN(CC(=O)Nc2nc3ccccc3s2)CC1` (centres unmarked) [compound 144, 3-[1-oxo-2-(1-(1-(2-oxo-2-(benzothiazole-2-yl)aminoethyl)piperidine-4-yl)) hydrazine]ethyl-4-cyanothiazolidine, trihydrochloride], for which the IC50 (trihydrochloride) was 0.167 ± 0.007 µM.
Turning to `N#CC1CSCN1C(=O)CN(N)C1CCN(CC(=O)N2CCOCC2)CC1` (centres unmarked) [Compound No. 107, 3-[1-oxo-2-[1-(1-(−2-oxo-2(morpholin-4-yl)ethyl)piperidin-4-yl)]hydrazino]ethyl-4-cyanothiazolidine bis-trifluoroacetate], the IC50 was 0.525 ± 0.098 µM.
As for `Cc1ccc(S(=O)(=O)N2CCC(NN(C)CC(=O)N3CSCC3C#N)CC2)cc1` (centres unmarked) [Compound No. 56, 3-[1-Oxo-2-[1-methyl-2-(1-(4-methylphenylsulphonyl)-piperidin-4-yl)]hydrazino]ethyl-4-cyanothiazolidine trifluoroacetate], the IC50 is 44.2 ± 1.36 µM.
Take `N#Cc1cc(CN2CCC(N(N)CC(=O)N3CSCC3C#N)CC2)ccc1-c1ccccc1` (centres unmarked) [Compound No. 109, 3-[1-oxo-2-[1-(1-(2-cyanobiphenyl-4-yl)methyl)piperidine-4-yl]hydrazino]ethyl-4-cyanothiazolidine bis-trifluoroacetate]: the IC50 turned out to be 1.02 ± 0.14 µM.
Turning to `N#CC1CSCN1C(=O)CN(N)C(=O)N1CCOCC1` (centres unmarked) [Compound No. 43, 3-[1-Oxo-2-(1-(4-morpholinocarbonyl) hydrazino)ethyl]-4-cyanothiazolidine trifluoroacetate], the IC50 stood at 38.2 ± 2.56 µM.
In the case of `Cc1ccc(S(=O)(=O)N2CCC(N(N)CC(=O)N3CSCC3C#N)CC2)cc1` (centres unmarked) [Compound No. 55, 3-[1-Oxo-2-(1-(1-(4-methylphenylsulphonyl)-4-piperidinyl)-hydrazino)]ethyl-4-cyanothiazolidine trifluoroacetate], the IC50 is 2.7 ± 0.16 µM.
Regarding `N#CC1CCCN1C(=O)CNN` (centres unmarked) [Compound No. 4, 1-[1-Oxo-2-(1-hydrazino)]ethyl-2-cyano pyrrolidine trifluoroacetate], the IC50 amounted to 88.6 ± 18.1 µM.
In the case of `CC1CCC(C(=O)N2CCC(N(N)CC(=O)N3CSCC3C#N)CC2)CC1` (centres unmarked) [Compound No. 65, 3-[1-Oxo-2-[1-(1-(4-methylcyclohexylcarbonyl)-piperidin-4-yl)]hydrazino]ethyl-4-cyanothiazolidine trifluoroacetate], the IC50 is 0.87 ± 0.06 µM.
Turning to `CC1CCC(N(CC(=O)N2CSCC2C#N)NC2CCN(C(C)C)CC2)CC1` (centres unmarked) [Compound No. 54, 3-[1-Oxo-2-[1-(4-methylcyclohexyl)-2-(1-isopropyl-4-piperidinyl)]hydrazino]ethyl-4-cyanothiazolidine], the IC50 was 6.43 ± 0.15 µM.
For `COCCNC(=O)CN1CCC(N(N)CC(=O)N2CSCC2C#N)CC1` (centres unmarked) [compound 135, 3-[1-oxo-2-(1-(1-(2-oxo-2-(2-methoxyethyl)aminoethyl)piperidin-4-yl))hydrazino]ethyl-4-cyanothiazolidine, bis-trifluoroacetate], the IC50 was 1.03 ± 0.035 µM.
For the compound `CC(C)N(N)CC(=O)N1CCCC1C#N` (centres unmarked) [Compound No. 12, 1-[1-Oxo-2-((1-(1-methyl)ethyl)hydrazino)]ethyl-2-cyano pyrrolidine trifluoroacetate], the IC50 turned out to be 61.3 ± 4.55 µM.
As for `N#CC1CSCN1C(=O)CN(N)C12CCC(CC1)C2` (centres unmarked) [Compound No. 63, 3-[1-Oxo-2-(1-(1-norcamphoranyl) hydrazino)]ethyl-4-cyanothiazolidine trifluoroacetate], the IC50 was found to be 0.73 ± 0.02 µM.
Same read-out and setting: to `N#CC1CSCN1C(=O)CN(N)C1CCN(CCC(=O)NC2CC2)CC1` (centres unmarked) [compound 132] belongs 1.77 ± 0.167 µM.
Same read-out and setting: to `CC(C)N(N)CC(=O)N1CCCC1C#N` (centres unmarked) [Compound No. 41, 1-[1-Oxo-2-isopropyl-2-hydrazino]ethyl-2-cyano pyrrolidine trifluoroacetate] belongs 48.3 ± 1.75 µM; to `CC(C)NN(CC(=O)N1CSCC1C#N)C1CCCCC1` (centres unmarked) [Compound No. 36, 3-[1-Oxo-2-(1-cyclohexyl-2-isopropyl) hydrazino]ethyl-4-cyanothiazolidine hydrochloride], 23.3 ± 2.54 µM; to `CC1CCC(N(CC(=O)N2CSCC2C#N)NC2CCN(Cc3cccnc3)CC2)CC1` (centres unmarked) [Compound No. 53, 3-[1-Oxo-2-[1-(4-methylcyclohexyl)-2-(1-(3-pyridinylmethyl)-4-piperidinyl)]hydrazino]ethyl-4-cyanothiazolidine], 16.7 ± 2.07 µM.
Still for that read-out and setting: to `N#CC1CSCN1C(=O)CN(N)C1CCN(C(=O)c2cccc(Cl)c2Cl)CC1` (centres unmarked) [Compound No. 70, 3-[1-Oxo-2-(1-(1-(2,3-dichlorophenylcarbonyl)-piperidin-4-yl) hydrazino)]ethyl-4-cyanothiazolidine trifluoroacetate] belongs 1.79 ± 0.12 µM.
Consider `CN(CC(=O)N1CSCC1C#N)NC1CCN(S(=O)(=O)c2ccc(Cl)cc2)CC1` (centres unmarked) [Compound No. 71, 3-[1-Oxo-2-[1-methyl-2-(1-(4-chlorophenylsulphonyl)-piperidin-4-yl)]-hydrazino]ethyl-4-cyanothiazolidine], for which the IC50 came out at 86.2 ± 5.3 µM.
For the compound `CN(CC(=O)N1CSCC1C#N)NC1CCN(Cc2cccnc2)CC1` (centres unmarked) [Compound No. 59, 3-[1-Oxo-2-[1-methyl-2-(1-(3-pyridinylmethyl)-piperidin-4-yl)]hydrazino]ethyl-4-cyanothiazolidine tris trifluoroacetate], the IC50 turned out to be 9.27 ± 0.42 µM.
As to `N#CC1CSCN1C(=O)CN(N)C1CCC(NS(=O)(=O)c2ccc(Cl)cc2)CC1` (centres unmarked) [Compound No. 82], the IC50 worked out at 0.66 ± 0.1 µM.
